Laboratory results: PubChem BioAssay AID618 (Sanford-Burnham Center for Chemical Genomics, 2007)
Activity calls are given as the source filed them. No rule for the calls is given here.

system: MT1-MMP promoter luciferase reporter cells, luminescence; test: MT1-MMP gene expression reporter suppression – cell-based, luciferase reporter, luminescence (AID 618);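 also: actives suppress MT1-MMP promoter-driven transcription so potencies describe inhibitors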

EC50	Compound
6.94 µM	Oc1c(CN2CCCCC2)cc(COCc2ccccc2)c2cccnc12
0.66 µM	COc1cccc(-c2nc(-c3ccccn3)no2)c1
13.2 µM	Cc1cc(-c2csc(N)n2)c(C)n1CCc1ccccc1
2.68 µM	Cc1ccc(-c2nc3cc(N)ccc3o2)c(C)c1
> 50 µM (inactive)	O=C(CN1C(=O)c2ccccc2S1(=O)=O)c1ccccc1
9.29 µM	Cc1c(C(=O)NC2=NCCS2)oc2ccccc12
3.71 µM	Cc1ccc2nc(-c3cccc(N)c3)oc2c1
< 0.098 µM	Cc1ccc(-c2nc(-c3ccccn3)no2)cc1
2.22 µM	COc1ccc(O)c(C(=O)CC(=O)c2ccccc2)c1
0.6 µM	Cc1ccc(-c2nnc(SCC(=O)Nc3ccccc3F)o2)cc1
3.05 µM	CCOc1ccc(OCc2ccc(C(=O)OCc3ccccn3)o2)cc1
1.64 µM	CC1=NC(=O)C(N=Nc2cccc(C(=O)O)c2)N1c1ccccc1 (stereo unspecified)
0.18 µM	COc1cccc(C(=O)/C=C/Nc2cccc(O)c2)c1
2.72 µM	Cc1ccc(NC2=Nc3ccccc3CC2)cc1
0.61 µM	Cc1cnc(NC(=O)C2COc3ccccc3O2)s1 (stereo unspecified)
2.8 µM	O=C(N/N=C/c1ccc([N+](=O)[O-])s1)c1ccccc1Br
1.32 µM	O=C(/C=C/Nc1cccc(O)c1)c1ccccc1
2.01 µM	O=C(/C=C\Nc1ccccn1)c1ccccc1
0.82 µM	O=C(CSc1nnc(-c2ccccc2)o1)Nc1ccccc1F
2.91 µM	Cc1ccc(-c2nc3cc(N)ccc3o2)cc1
21.9 µM	Nc1cccc2nc3ccccc3cc12

EC50	Compound
34.4 µM	Cc1cc(N)n2nc(-c3ccccc3)cc2n1
0.66 µM	Cc1ccc(C(=O)Nc2cccc(C(=O)O)c2)cc1
3.53 µM	O=C(Nc1nc2ccccc2[nH]1)c1ccccc1
13.2 µM	O=S(=O)(c1ccc(Cl)cc1)c1snnc1-c1ccccc1
6.52 µM	O=C(NC1=NCCS1)c1cc2ccccc2o1
0.19 µM	COc1ccc(C(=O)/C=C/Nc2ccccn2)cc1
15.4 µM	O=C(O)CCSc1nc2ccccc2s1
3.02 µM	O=C(COc1ccc(CO)cc1Cl)Nc1ccc(F)cc1
0.23 µM	CC(C)(C)c1ccc(C(=O)Nc2ccc(CC(=O)O)cc2)o1
2.56 µM	CCOc1ccc(C(=O)NCCc2ccccc2)cc1
14.4 µM	CCOC(=O)/C(=C\c1ccccc1)C(=O)c1cc(C(C)=O)c(Nc2ccccc2)s1
2.13 µM	Cc1ccccc1NC(=O)c1cnc2ccccn2c1=O
1.73 µM	COc1ccc(C(=O)Nc2nnc(-c3ccco3)s2)cc1
13 µM	Cc1ccnc(Nc2nc3ccccc3o2)n1
4.41 µM	COc1cccc(-c2nc3cc(C)ccc3o2)c1
1.82 µM	COc1ccccc1-c1nc(-c2ccccn2)no1
1.83 µM	O=C1c2ccccc2C(=O)C1c1nccc2ccccc12
2.98 µM	COc1ccc(C(=O)Nc2ccc3c(c2)OCCO3)cc1
1.91 µM	Nc1ccc2nc(-c3ccccc3)sc2c1
6.92 µM	Brc1ccccc1-c1nc(-c2ccccc2)no1
> 50 µM (inactive)	c1ccc(-c2noc(-c3cccs3)n2)nc1

EC50	Compound
> 50 µM (inactive)	CCn1c(SCC(=O)Nc2ccccc2C)nnc1-c1ccccc1O
7.03 µM	Clc1cccc(-c2nnc(-c3ccccc3)o2)c1
1.14 µM	COc1ccc(C(=O)Nn2c(SCC(=O)NCc3ccco3)nc3ccccc3c2=O)cc1
27.6 µM	CC(C)C(=O)NC(c1ccco1)c1ccc2cccnc2c1O (stereo unspecified)
12.7 µM	CCCc1cc(C(=O)Nc2nccs2)cs1
12 µM	CCCC(=O)Nc1ccc(-c2nc3cc(C)ccc3o2)cc1
9.02 µM	c1ccc(-c2ccc(-c3nc(-c4ccncc4)no3)cc2)cc1
2.87 µM	Cc1ccc(-c2nc(-c3ccccc3)no2)cc1
1.12 µM	COC(=O)c1ccc(-c2nc(-c3cccs3)no2)cc1
> 50 µM (inactive)	O=C(Nc1ccccn1)c1cc2ccccc2o1
12.3 µM	Cc1nn2cc(-c3ccccc3)nc2s1
2.12 µM	CCc1ccc(-c2cc(C(=O)Nn3cnnc3)c3ccccc3n2)cc1
6.05 µM	CC(C)C(=O)Nc1ccc(-c2nc3cccnc3o2)cc1
0.2 µM	Cc1ccc(C(=O)Nc2cnc3ccccc3c2)cc1
1.66 µM	CC(C)c1ccc2oc(-c3ccc(N)cc3)nc2c1
25.5 µM	Cc1ccccc1C(=O)N/N=C/c1ccc([N+](=O)[O-])s1
18 µM	Cc1ccccc1Cn1nnc(-c2cccc(C(=O)O)c2)n1
6.27 µM	CC(C)C(=O)Nc1ccc(NC(=O)c2ccccn2)cn1
1.67 µM	Cc1ccc(CNc2nc3ccccc3s2)s1
12.9 µM	O=C(NC1=NC2CCCCC2N1)c1ccccc1 (stereo unspecified)
14 µM	Nc1ccc(-c2nc3ccc(N)cc3o2)cc1

More lines, now with the values behind:

Compound	EC50
C=CCn1c(C)cc(C(=O)CSc2nc3ccccc3[nH]2)c1C	2.64 µM
Cc1ccc(C(=O)Nc2cccc(C(=O)O)c2)cc1S(=O)(=O)N1CCCCC1	7.25 µM
Cc1cc(C)c(OCC(=O)Nc2cccc(O)c2)cc1C	26.6 µM
COc1ccccc1-c1cc(C(F)(F)F)nc(S(=O)(=O)CCCC(=O)N2CCOCC2)n1	22 µM
CC(C)c1ccc(-c2nnn(CCC(=O)O)n2)cc1	1.04 µM
CC1CC(C)(C)Nc2ccc(OC(=O)c3ccco3)cc21 (stereo unspecified)	3.01 µM
Nc1ccc(-c2nc3c(Cl)cc(N)cc3[nH]2)cc1	10.7 µM
O=C(c1cc(-c2cccc(O)c2)on1)N1CCCCC1	6.35 µM
Clc1ccc(-c2nnc(N3CCCC3)nn2)cc1	6.38 µM
COc1cccc(Cn2c(NCc3cccnc3)nc3c2c(=O)n(C)c(=O)n3C)c1	0.25 µM
CCc1cc2c(=O)n(Cc3ccco3)c(SCc3c(C)noc3C)nc2s1	> 50 µM (inactive)
CCCCOc1ccc(C(=O)C(CN2CCOCC2)c2ccccc2)cc1 (stereo unspecified)	13 µM
C=CCNc1ncnc2c1cnn2-c1ccc(OC)cc1	8.5 µM
N#Cc1c(NC(=O)CSc2ncn[nH]2)sc2c1CCCC2	0.73 µM
COCCn1c(C)cc(C2=NNC(=Nc3ccccc3)SC2)c1C	5.3 µM
COCCn1c(C)cc(C2=NNC(=Nc3ccccc3F)SC2)c1C	3.04 µM
CCOc1ccc(-c2nnc(-c3ccco3)o2)cc1	1.42 µM
COC(=O)Cc1ccc(NC(=O)c2ccc(C(C)(C)C)cc2)cc1	0.31 µM
COc1cccc(C(=O)NCCC2=CCCCC2)c1	8.74 µM
COc1ccc(-c2cc3nc(C)cc(N)n3n2)cc1	1.73 µM
CCOC(=O)C1CCCCN1C(=O)CCc1c(C)nc2cc(-c3ccccc3)nn2c1C (stereo unspecified)	1.15 µM
Cc1ccc2nc(-c3cccc(N)c3)[nH]c2c1	2.8 µM
Cc1ccc2nc(-c3cc(N)cc(N)c3)oc2c1	1.57 µM

Compound	EC50
CCN1C=CC(=C2C(=O)c3ccccc3C2=O)C=C1	0.2 µM
Cc1cc(C)c2c(N)c(C(=O)Nc3ncc(C)s3)sc2n1	0.21 µM
Cc1cc(NCCCn2ccnc2)n2ncc(-c3ccc(Cl)cc3)c2n1	8.72 µM
CC(C)Nc1ncnc2c1cnn2-c1ccc(Cl)cc1	3.85 µM
COc1ccc(NC(=O)/C(Cl)=C(/Cl)S(=O)(=O)Cc2ccc(C)cc2)cn1	14.5 µM
Cc1c(C(=O)NCC2CCCO2)oc2ccc3c(c12)C(=O)CC(C)(C)O3 (stereo unspecified)	12.5 µM
COc1ccc(O)c(C(=O)CC(=O)c2ccc(F)cc2)c1	0.57 µM
CCc1nnc(NC(=O)c2ccc(OC)cc2OC)s1	6.08 µM
O=C(c1ccc(Cl)cc1)N1CCCCC(Sc2nnc(-c3ccc4c(c3)OCO4)o2)C1=O (stereo unspecified)	0.14 µM
Cc1cc(C(=O)CSc2nc3ccccc3[nH]2)c(C)n1CC1CCCO1 (stereo unspecified)	3.86 µM
c1ccc(C2=NNC(=NC3CC3)SC2)cc1	1.7 µM
O=c1c2c(nc3cc(-c4ccc(F)cc4)[nH]n13)CCCC2	6.48 µM
CCCCc1ccc(-c2nc(-c3ccncc3)no2)cc1	13.4 µM
COc1cc(SC)ccc1C(=O)Nc1ccc2c(c1)OCCO2	13.2 µM
Cc1ccc(C(=O)CSc2nnnn2C(C)C)c(C)c1	1.7 µM
Cc1ccc(-c2nc(N/N=C/c3ccncc3)c3ccccc3n2)cc1	0.57 µM
CCN=C1NN=C(c2ccc(C)cc2)CS1	1.98 µM
COc1cc([N+](=O)[O-])ccc1N/C=C/C(=O)c1cccs1	2.05 µM
Cc1cc(NC(=O)CSc2nc(-c3ccco3)cc(C(F)(F)F)n2)no1	> 50 µM (inactive)
O=C(Nc1nccs1)c1cc2c(s1)CCCCC2	0.55 µM
CC(C)(C)c1ccc(-c2noc(CCC(N)=O)n2)cc1	0.13 µM
COc1ccc(-n2ncc3c(NC(C)C)ncnc32)cc1	5.36 µM
Cc1cc(C)c(C)c(S(=O)(=O)Nc2ccccc2C(=O)NCCCn2ccnc2)c1C	1.82 µM

Compound	EC50
O=C1C(Cl)=C(N2CCCCC2)C(=O)C(Cl)=C1c1cnc(N2CCCCC2)s1	4.53 µM
CC1=CC(C)(C)Nc2ccc(OC(=O)CN3C(=O)CCC3=O)cc21	42 µM
CCCc1ccc(-c2ccc(F)c(N)c2)nc1	0.66 µM
CC(C)CNC(=O)c1coc(=O)c(Br)c1	18.5 µM
Cc1cc(C)n(-c2nc3ccccc3nc2N2CCC(C)CC2)n1	> 50 µM (inactive)
Cc1ccc(-c2nc3cc(C)ccc3o2)cc1	2.32 µM
COCCn1c(C)cc(C(=O)CSc2nnc3ccccn23)c1C	3.63 µM
Cc1cc(/C=N/n2cnnc2)c(C)n1-c1ccc(OCc2ccc(Cl)cc2Cl)cc1	9.47 µM
Cc1cc(-c2csc(N)n2)c(C)n1CCC(C)C	39.9 µM
COc1ccc(-n2ncc3c(NCC(C)C)ncnc32)cc1	6.31 µM
CC(C)(C)c1ccc(OCC(O)CSc2ncn[nH]2)cc1 (stereo unspecified)	16.9 µM
CCc1ccc(-c2nnn(CCC(=O)OC)n2)cc1	2.02 µM
COCCn1c(C)cc(C(=O)CSc2ccc(NC(C)=O)cc2)c1C	8.54 µM
O=C(O)CSCC(=O)Nc1ccc(C2CCCCC2)cc1	0.58 µM
CN(C)c1ccc(N/C=C/C(=O)c2ccco2)cc1	4.42 µM
CCN(CC)c1ccc2cc(NC(=O)CCC(=O)O)c(=O)oc2c1	0.67 µM
Cc1csc(NC(=O)c2cc3c(s2)CCCC3)n1	1.26 µM
CC(C)(C)c1ccc(-c2nc(-c3ccncc3)no2)cc1	6.13 µM
COc1ccc(S(=O)(=O)N2CCN(C(=O)CCC3CCCC3)CC2)cc1	> 50 µM (inactive)
N#Cc1c(NC(=O)CSc2ncn[nH]2)sc2c1CCCCC2	< 0.098 µM
CC(C)(C)c1ccc(C(=O)N2CCCCCC2=O)cc1	12.8 µM
CC(=O)Nc1ccc(SCC(=O)c2cc(C)n(Cc3cccs3)c2C)cc1	1.22 µM
